Test [1] addresses T1, human KCNQ2 (Homo sapiens, UniProt O43526).
T1 construct: expressed in transfected cells
Description: 86Rb flux in KCNQ2 expressing cells. It is filed as cell-based. Conditions: KCNQ2 opening; for EC50: 86Rb efflux, CHO-K1 cells stably transfected with human KCNQ2; for Emax: Max effect determined in % of the effect of 30 mM KCl. The protocol: Chinese hamster ovary cells (CHO-K1) were stably transfected with human KCNQ2 inserted into the pCl-neo vector (Promega). Cells were plated at 2×10^5 cells/ml in 96-well plates in 100 μl media (MEM Alpha media, 10% FBS, 1% P/S, 1% L-Glu, and 1 mg/ml G418). At the time of plating the cells were furthermore loaded with 1 μCi/ml 86Rb over-night. On the subsequent day, the cells were washed with 3×50 μl assay buffer (HBSS+10 mM HEPES, pH 7.4) and incubated in 50 μl buffer with retigabine for 30 minutes at 37° C. Following this preincubation, the cell membrane was depolarized for 30 minutes at 37° C. with 15 mM KCl (final concentration) in assay buffer supplemented with the appropriate amount of compound to maintain drug concentration. The supernatant was removed and placed in pony-vials with 0.5 ml scintillation liquid and counted. The dose-dependent effect of the investigated compounds on the efflux of 86Rb through the hKCNQ2 channels were calculated according to the four parameter logistic equation: Y=Bottom+(Top-Bottom)/(1+10̂((LogEC50-X)*HillSlope)), where X is the logarithm of concentration, Y is the response, and HillSlope is the hill coefficient.
A representative selection of compounds of the invention were tested in the assay in addition to 6 comparative examples wherein 0 has been substituted with a 6-membered ring comprising up to two N atoms. Comparative 1-4 has been disclosed in WO 2009/127678 or WO 2009/127679 and comparative 5-6 are close analogues.

Test [2] deals with human α7 receptor (Homo sapiens, UniProt P36544). Kind of test: α7 NNR flux assay (FDSS Ca assay). It is filed as cell-based. As to conditions: positive allosteric modulation; rat GH4C1 cell line stably expressing human α7; acetylcholine 20 μM; % modulation relative to PNU-120596 set to 100%. The essentials: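 GH4C1 rat cells stably expressing human α7, loaded with Calcium-4 dye plus 2.5 mM probenecid in HBSS/20 mM HEPES pH 7.4, 3 mM CaCl2. Compounds (0.039–20 μM final) preincubated ~95 s before 20 μM acetylcholine (~EC100); Ex480/Em540 fluorescence on FDSS. Values are % modulation, with 3 μM PNU-120596 set to 100%.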

Test [3] deals with α7 nACh receptors expressed in Xenopus oocytes. Description: α7 NNR oocyte assay (electrophysiological recordings). It is filed as cell-based, human or rat. Conditions: tested subsequently in the oocyte assay. The protocol:
Expression of α7 nACh Receptors in Xenopus oocytes.
Oocytes were surgically removed from mature female Xenepus laevis anaesthetized in 0.4% MS-222 for 10-15 min. The oocytes were then digested at room temperature for 2-3 hours with 0.5 mg/ml collagenase (type IA Sigma-Aldrich) in OR2 buffer (82.5 mM NaCl, 2.0 mM KCl, 1.0 mM MgCl2 and 5.0 mM HEPES, pH 7.6). Oocytes avoid of the follicle layer were selected and incubated for 24 hours in Modified Barth's Saline buffer (88 mM NaCl, 1 mM […], 15 mM HEPES, 2.4 mM NaHCO3, 0.41 mM CaCl2, 0.82 mM MgSO4, 0.3 mM Ca(NO3)2) supplemented with 2 mM sodium pyruvate, 0.1 μg/l penicillin and 0.1 μg/l streptomycin. Stage 1V oocytes were identified and injected with 4.2-48 nl of nuclease free water containing 0.1-1.2 ng of cRNA coding for human α7 nACh receptors or 3.0-32 ng of cRNA coding for rat α7 nACh receptors and incubated at 18° C. for 1-10 days when they were used for electrophysiological recordings.
Electrophysiological Recordings of α7 nACh Receptors Expressed in Oocytes.
Oocytes were used for electrophysiological recordings 1-10 days after injection. Oocytes were placed in a 1 ml bath and perfused with Ringer buffer (115 mM NaCl, 2.5 mM KCl, 10 mM HEPES, 1.8 mM CaCl2, 0.1 mM MgCl2, pH 7.5). Cells were impaled with agar plugged 0.2-1 MΩ electrodes containing 3 M KCl and voltage clamped at −90 mV by a GeneClamp 500B amplifier. The experiments were performed at room temperature. Oocytes were continuously perfused with Ringer buffer and the drugs were applied in the perfusate. ACh (30 μM) applied for 30 sec were used as the standard agonist for activation of the α7 nACh receptors. In the standard screening set-up the new test compound (10 μM or 30 μM) were applied for 1 min of pre-application allowing for evaluation of agonistic activity followed by 30 sec of co-application with ACh (30 μM) allowing for evaluation of PAM activity. […] The drug induced effects on both the peak response and the total charge (AUC) response were calculated thus giving the effect of drug induced PAM activity as fold modulation of the control response. […]

What is called EC50 is the concentration at which the effect is half-maximal. A higher EC50 goes with a less potent agent. One may read the Emax as the maximal effect, on the per cent scale that the assay sets.

Chain of human α7 receptor (P36544 23-502): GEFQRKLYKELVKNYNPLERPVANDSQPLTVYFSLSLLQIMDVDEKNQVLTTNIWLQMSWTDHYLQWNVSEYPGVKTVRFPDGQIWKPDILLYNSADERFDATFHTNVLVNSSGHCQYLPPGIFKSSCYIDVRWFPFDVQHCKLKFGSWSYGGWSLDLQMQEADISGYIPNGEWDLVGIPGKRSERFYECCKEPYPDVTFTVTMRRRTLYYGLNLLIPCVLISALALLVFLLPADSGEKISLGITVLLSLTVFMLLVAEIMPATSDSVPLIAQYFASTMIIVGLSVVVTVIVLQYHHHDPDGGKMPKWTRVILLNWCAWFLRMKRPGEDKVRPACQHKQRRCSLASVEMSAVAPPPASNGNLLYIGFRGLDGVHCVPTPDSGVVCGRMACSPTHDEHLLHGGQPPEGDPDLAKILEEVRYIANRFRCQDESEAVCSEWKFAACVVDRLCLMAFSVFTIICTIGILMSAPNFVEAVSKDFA

As for `O=C(NCc1ccc2[nH]c(C(F)(F)F)cc2c1)c1ccc(-c2ccccc2)nc1` [Compound C2, 6-Phenyl-N-(2-trifluoromethyl-1H-indol-5-ylmethyl)-nicotinamide, reference compound], in test [1], the EC50 is over 50 µM and the Emax was determined as 31%.
The compound `Cc1cc2cc(CNC(=O)c3cnc(C)s3)ccc2[nH]1` [Compound 35, 2-methyl-N-[(2-methyl-1H-indol-5-yl)methyl]thiazole-5-carboxamide] had an EC50 in test [2] of 2.45 µM. Moreover, the Emax in test [1] was determined as 7.5%.
For `Cc1ncc(C(=O)NCc2ccc3[nH]c(C(F)(F)F)cc3c2)s1` [Compound 66, 2-methyl-N-[[2-(trifluoromethyl)-1H-indol-5-yl]methyl]thiazole-5-carboxamide], the EC50 in test [2] turned out to be 8.8 µM. Besides, in test [1], the EC50 is over 50 µM and the Emax turned out to be 3.7%.
In test [2], `Cc1cc(C(=O)NCc2ccc3[nH]c(C(F)(F)F)cc3c2)on1` [Compound 65, 3-methyl-N-[[2-(trifluromethyl)-1H-indol-5-yl]methyl]isoxazole-5-carboxamide] gave an EC50 of 5 µM. The Emax in test [1] came out at 8.1%.
Turning to `Cc1cc(C(=O)NC(C)c2ccc3[nH]c(C(F)(F)F)cc3c2)on1` (single isomer, unassigned) [Compound 96, 3-methyl-N-[1-[2-(trifluoromethyl)-1H-indol-5-yl]ethyl]isoxazole-5-carboxamide], the EC50 in test [2] is 4.2 µM; in test [1], over 50 µM. For the same compound, the Emax in test [1] came out at 5.4%.
Turning to `CC(C)c1cc(C(=O)NCc2ccc3[nH]c(C(F)(F)F)cc3c2)on1` [Compound 67, 3-isopropyl-N-[[2-(trifluoromethyl)-1H-indol-5-yl]methyl]isoxazole-5-carboxamide], the EC50 in test [2] is 6.1 µM. Besides, in test [1], the EC50 was over 50 µM and the Emax is 5.3%.
As for `O=C(NCc1ccc2[nH]c(C(F)(F)F)cc2c1)c1ccc(C(F)(F)F)nc1` [Compound C3, 6-Trifluoromethyl-N-(2-trifluoromethyl-1H-indol-5-ylmethyl)-nicotinamide, reference compound], in test [1], the response was half-maximal at 17 µM (EC50) and the Emax was 46%.
In test [2], `Cc1cc(C(=O)N[C@H](C)c2ccc3[nH]c(C)cc3c2)sn1` [Compound 47, 3-methyl-N-[(1R)-1-(2-methyl-1H-indol-5-yl)ethyl]isothiazole-5-carboxamide] returned an EC50 of over 20 µM. Also, in test [3], the “NNR PAM activity in the oocyte assay compared with the flux assay” value was “significantly better NNR PAM activity”.
The compound `Cc1cc2cc(CNC(=O)c3cnn(CC(F)(F)F)c3)ccc2[nH]1` [Compound 36, N-[(2-methyl-1H-indol-5-yl)methyl]-1-(2,2,2-trifluoroethyl)pyrazole-4-carboxamide] yielded an EC50 in test [2] of 1.49 µM. Further, the Emax in test [1] is 3.3%.
For `Cc1cc2cc(CNC(=O)c3ccccc3F)ccc2n1C` [Compound C6, N-(1,2-Dimethyl-1H-indol-5-ylmethyl)-2-fluoro-benzamide, reference compound], in test [1], the EC50 was over 50 µM and the Emax worked out at 13%.
`Cc1cc2cc([C@@H](C)NC(=O)c3cnn(CC(F)(F)F)c3)ccc2[nH]1` [Compound 86, N-[(1R)-1-(2-methyl-1H-indol-5-yl)ethyl]-1-(2,2,2-trifluoroethyl)pyrazole-4-carboxamide] gave an EC50 in test [2] of over 20 µM. In test [3], the “NNR PAM activity in the oocyte assay compared with the flux assay” value is recorded as “significantly better NNR PAM activity”.
For the compound `COc1ccc(C(=O)NCc2ccc3[nH]c(C)cc3c2)cc1` [Compound C5, 4-Methoxy-N-(2-methyl-1H-indol-5-ylmethyl)-benzamide, reference compound], in test [1], the EC50 is over 50 µM and the Emax amounted to 17%.
`Cc1cc2cc(CNC(=O)c3cnn(C)c3)ccc2[nH]1` [Compound 29, 1-methyl-N-[(2-methyl-1H-indol-5-yl)methyl]pyrazole-4-carboxamide] came in with an EC50 in test [2] of 9.25 µM. For the same compound, in test [1], the EC50 was over 50 µM and the Emax was 4%.
In the same order, the values of `O=C(NCc1ccc2[nH]c(C(F)(F)F)cc2c1)c1cnn(CC(F)(F)F)c1` [Compound 40, 1-(2,2,2-trifluoroethyl)-N-[[2-(trifluoromethyl)-1H-indol-5-yl]methyl]pyrazole-4-carboxamide] are 3.5 µM, over 50 µM and 2.4%.
With `Cc1cc2cc(CNC(=O)c3occc3C)ccc2[nH]1` [Compound 1, 3-methyl-N-[(2-methyl-1H-indol-5-yl)methyl]furan-2-carboxamide], the EC50 in test [2] is 2.7 µM; in test [1] it was over 50 µM. Besides, the Emax in test [1] worked out at 2%.
As for `Cn1cc(C(=O)NCc2ccc3[nH]c(C(F)(F)F)cc3c2)cn1` [Compound 30, 1-methyl-N-[[2-(trifluoromethyl)-1H-indol-5-yl]methyl]pyrazole-4-carboxamide], the EC50 in test [2] was 5.8 µM. Besides, in test [1], the EC50 was over 50 µM and the Emax was 9.6%.
`Cc1cc(C(=O)NCc2ccc3[nH]c(C)cc3c2)on1` [Compound 28, 3-methyl-N-[(2-methyl-1H-indol-5-yl)methyl]isoxazole-5-carboxamide] yielded an EC50 in test [2] of 2.97 µM. For the same compound, the Emax in test [1] amounted to 5.7%.
Regarding `O=C(NCc1ccc2[nH]c(C(F)(F)F)cc2c1)c1ccno1` [Compound 31, N-[[2-(trifluoromethyl)-1H-indol-5-yl]methyl]isoxazole-5-carboxamide], in test [1], the EC50 was over 50 µM and the Emax was determined as 4.8%.
For the compound `N#Cc1ccc(C(=O)NCc2ccc3[nH]c(C(F)(F)F)cc3c2)cn1` [Compound C4, 6-Cyano-N-(2-trifluoromethyl-1H-indol-5-ylmethyl)-nicotinamide, reference compound], in test [1], the EC50 is over 50 µM and the Emax is 15%.
Regarding `O=C(NCc1ccc2[nH]c(C(F)(F)F)cc2c1)c1ncc(C(F)(F)F)cn1` [Compound C1, 5-Trifluoromethyl-pyrimidine-2-carboxylic acid (2-trifluoromethyl-1H-indol-5-ylmethyl)amide, reference compound], in test [1], the EC50 is over 50 µM and the Emax worked out at 34%.
Consider `Cc1cc2cc(CNC(=O)c3ccc(C)s3)ccc2[nH]1` [Compound 24, 5-methyl-N-[(2-methyl-1H-indol-5-yl)methyl]thiophene-2-carboxamide], for which the EC50 in test [2] is 0.34 µM; in test [1], over 50 µM. Further, the Emax in test [1] came out at 5%.
Compound `Cc1cc(C(=O)N[C@H](C)c2ccc3[nH]c(C)cc3c2)on1` [Compound 61, 3-methyl-N-[(1R)-1-(2-methyl-1H-indol-5-yl)ethyl]isoxazole-5-carboxamide] yielded an EC50 in test [2] of 2.33 µM. Also, the Emax in test [1] was -5%.

Source of the values: patent US20120252853A1, “Positive allosteric modulators of nicotinic acetylcholine receptor” (H. Lundbeck A/S, priority 2011, published 2012).
